The record followed here is ChEMBL document CHEMBL4002633, “Synthesis, evaluation and quantitative structure-activity relationship (QSAR) analysis of Wogonin derivatives as cytotoxic agents” (Bioorg Med Chem Lett, 2017).

Molecules are shown by their SMILES. pIC50: −log10 of the molar value.

The subject of experiment [1] is HepG2. Put plainly: Cytotoxicity against human HepG2 cells assessed as reduction in cell viability after 48 hrs by MTT assay. The experiment is classed as functional, cell-based. The following applies: HepG2, 48 h; for pIC50: read-out: IC50; for IC50: read-out: pIC50 (converted). On the technique in general: Tetrazolium dyes change colour on reduction, which living cells bring about.

In experiment [2] the test system is A549. Description: Cytotoxicity against human A549 cells assessed as reduction in cell viability after 48 hrs by MTT assay. The experiment is classed as functional, cell-based. The following applies: A549, 48 h.
Experiment [3] is described as follows: Cytotoxicity against human BCG823 cells assessed as reduction in cell viability after 48 hrs by MTT assay. The experiment is classed as functional, cell-based. The note with it: BCG823, 48 h.
Experiment [4] is described as follows: Potency index, ratio of 5-fluorouracil IC50 to compound IC50 for human BCG823 cells. The experiment is classed as functional.
Experiment [5] relates to A549. Description: Potency index, ratio of 5-fluorouracil IC50 to compound IC50 for human A549 cells. It counts as functional.
In experiment [6] the test system is HepG2. Put plainly: Potency index, ratio of 5-fluorouracil IC50 to compound IC50 for human HepG2 cells. The experiment is classed as functional.

Take `CCN(CC)CCOc1c(O)cc(O)c2c(=O)cc(-c3ccccc3)oc12`: in experiment [1], the pIC50 was 4.17 and the IC50 was 67.6 µM. The pIC50 in experiment [2] is under 4.00.
The corresponding values for `CN1CCN(CCCOc2c(O)cc(O)c3c(=O)cc(-c4ccccc4)oc23)CC1` are 4.37, 42.7 µM and under 4.00.
With `COc1c(O)cc(O)c2c(=O)cc(-c3ccc(F)cc3Br)oc12`, in experiment [1], the pIC50 is 4.47 and the IC50 is 33.9 µM.
`CN1CCN(CCCCOc2c(O)cc(O)c3c(=O)cc(-c4ccccc4)oc23)CC1`: the pIC50 is 4.82 in experiment [1] and under 4.00 in experiment [2]. Moreover, the IC50 in experiment [1] was 15.1 µM.
The corresponding values for `O=c1cc(-c2ccccc2)oc2c(OCCCCN3CCOCC3)c(O)cc(O)c12` are 4.82, 4.08 and 15.1 µM.
As for `CNCCOc1c(O)cc(O)c2c(=O)cc(-c3ccccc3)oc12`, in experiment [1], the pIC50 is 4.19 and the IC50 is 64.6 µM. Further, the pIC50 in experiment [3] was 4.22.
Take `COc1c(OCCCN2CCN(C)CC2)cc(O)c2c(=O)cc(-c3ccccc3)oc12`: the pIC50 in experiment [1] is 4.50; in experiment [3], 4.28; in experiment [2], 5.00. Besides, in experiment [1], the IC50 was 31.6 µM.
As for `CN(C)CCCOc1c(O)cc(O)c2c(=O)cc(-c3ccccc3)oc12`, in experiment [1], the pIC50 is 4.38 and the IC50 was 41.7 µM. The pIC50 in experiment [2] is under 4.00.
Consider `CCCCNCCOc1c(O)cc(O)c2c(=O)cc(-c3ccccc3)oc12`, for which, in experiment [1], the pIC50 was 4.24 and the IC50 is 57.5 µM. The pIC50 in experiment [3] is 4.14.
Take `O=c1cc(-c2ccccc2)oc2c(OCCCN3CCCC3)c(O)cc(O)c12`: the pIC50 in experiment [1] was 4.23; in experiment [2], under 4.00. Moreover, the IC50 in experiment [1] is 58.9 µM.
Consider `CCN(CC)CCCOc1c(O)cc(O)c2c(=O)cc(-c3ccccc3)oc12`, for which, in experiment [1], the pIC50 was 4.17 and the IC50 is 67.6 µM. In addition, in experiment [2], the pIC50 is under 4.00.
The corresponding values for `O=c1cc(-c2ccccc2)oc2c(OCCN3CCCC3)c(O)cc(O)c12` are 4.16, 69.2 µM and 4.17.
In the case of `COc1c(OCCCNCc2ccccc2)cc(O)c2c(=O)cc(-c3ccccc3)oc12`, the pIC50 was 5.09 in experiment [1], 5.00 in experiment [3] and 5.80 in experiment [2]. Besides, the IC50 in experiment [1] was 8.13 µM.
As to `CCCNCCOc1c(O)cc(O)c2c(=O)cc(-c3ccccc3)oc12`, in experiment [1], the negative logarithm of the IC50 (pIC50) is 4.01 and the IC50 is 97.7 µM. The pIC50 in experiment [3] was 4.20.
Take `COc1c(OCCCN(CCO)CCO)cc(O)c2c(=O)cc(-c3ccccc3)oc12`: the pIC50 was 5.42 in experiment [1], 5.19 in experiment [3] and 5.52 in experiment [2]. In addition, the IC50 in experiment [1] is 3.8 µM.
For `COc1c(OCCCN2CCNCC2)cc(O)c2c(=O)cc(-c3ccccc3)oc12`, the pIC50 in experiment [1] is 5.04; in experiment [3], 4.92; in experiment [2] it was 5.00. Besides, in experiment [1], the IC50 is 9.12 µM.
Regarding `COc1c(O)cc(O)c2c(=O)cc(-c3ccc(F)cc3)oc12`, in experiment [1], the pIC50 was 4.36 and the IC50 was 43.7 µM.
As for `COc1c(OCc2nc3ccccc3[nH]2)cc(O)c2c(=O)cc(-c3ccccc3)oc12`, in experiment [1], the pIC50 is 4.53 and the IC50 is 29.5 µM. Further, the pIC50 in experiment [2] was under 4.00.
In the case of `COc1c(OCCCCN2CCNCC2)cc(O)c2c(=O)cc(-c3ccccc3)oc12`, the entries for the “Ratio IC50” value in experiment [4], in experiment [5] and in experiment [6] were 17, 9 and 18, respectively. Besides, the figures for the pIC50 in experiment [1], in experiment [3] and in experiment [2] were 5.97, 6.01 and 5.76, respectively. In experiment [1], the IC50 is 1.07 µM.
With `O=c1cc(-c2ccccc2)oc2c(OCCN3CCOCC3)c(O)cc(O)c12`, in experiment [1], the pIC50 is 4.40 and the IC50 was 39.8 µM. Moreover, in experiment [2], the pIC50 was under 4.00.
On to `COc1c(OCCCN2CCCC2)cc(O)c2c(=O)cc(-c3ccccc3)oc12`, for which the figures for the negative-log IC50 (pIC50) in experiment [1], in experiment [3] and in experiment [2] were 4.81, 4.75 and 5.86, respectively. Besides, in experiment [1], the IC50 was 15.5 µM.
As for `CC(C)NCCCCOc1c(O)cc(O)c2c(=O)cc(-c3ccccc3)oc12`, in experiment [1], the pIC50 is 4.52 and the IC50 was 30.2 µM. The pIC50 in experiment [3] was 4.15.
Take `CNCCCCOc1c(O)cc(O)c2c(=O)cc(-c3ccccc3)oc12`: in experiment [1], the pIC50 was 4.01 and the IC50 is 97.7 µM. In experiment [3], the pIC50 is under 4.00.
On to `COc1c(OCCCCNCc2ccccc2)cc(O)c2c(=O)cc(-c3ccccc3)oc12`, for which the pIC50 is 4.34 in experiment [1], 4.32 in experiment [3] and 5.34 in experiment [2]. Also, the IC50 in experiment [1] is 45.7 µM.
Regarding `O=c1cc(-c2ccccc2)oc2c(OCCNCCO)c(O)cc(O)c12`, in experiment [1], the pIC50 is 4.24 and the IC50 is 57.5 µM. For the same compound, in experiment [3], the negative-log IC50 (pIC50) is 4.22.
As for `COc1c(OCc2ncc(C)o2)cc(O)c2c(=O)cc(-c3ccccc3)oc12`, the pIC50 was 4.69 in experiment [1] and under 4.00 in experiment [2]. For the same compound, in experiment [1], the IC50 was 20.4 µM.
Take `COc1c(OCCCN2CCOCC2)cc(O)c2c(=O)cc(-c3ccccc3)oc12`: the pIC50 in experiment [1] is 5.19; in experiment [3], 5.43; in experiment [2], 5.64. In addition, the IC50 in experiment [1] is 6.46 µM.
Turning to `O=c1cc(-c2ccccc2)oc2c(OCCCN3CCOCC3)c(O)cc(O)c12`, in experiment [1], the pIC50 was 4.67 and the IC50 was 20.9 µM. The pIC50 in experiment [2] is under 4.00.
As to `COc1c(O)cc(O)c2c(=O)cc(-c3ccccc3)oc12` [WOGONIN], the figures for the negative-log IC50 (pIC50) in experiment [1], in experiment [3] and in experiment [2] were 4.72, 4.78 and 4.80, respectively. Besides, the IC50 in experiment [1] is 19.1 µM.
As to `CC(CO)NCCOc1c(O)cc(O)c2c(=O)cc(-c3ccccc3)oc12` (stereo not given), in experiment [1], the pIC50 is 4.36 and the IC50 was 43.7 µM. In addition, the pIC50 in experiment [3] is 4.04.
With `O=c1cc(-c2ccccc2)oc2c(OCCCCNC3CCCCC3)c(O)cc(O)c12`, the negative-log IC50 (pIC50) in experiment [1] was 4.96; in experiment [3], 4.31. For the same compound, in experiment [1], the IC50 is 11 µM.
`COc1c(OCCCCN2CCCCC2)cc(O)c2c(=O)cc(-c3ccccc3)oc12`: the values for the pIC50 in experiment [1], in experiment [3] and in experiment [2] were 5.71, 4.74 and 5.94, respectively. Further, the IC50 in experiment [1] is 1.95 µM.
Turning to `CN(C)CCCCOc1c(O)cc(O)c2c(=O)cc(-c3ccccc3)oc12`, in experiment [1], the pIC50 is 4.45 and the IC50 was 35.5 µM. In experiment [2], the pIC50 was under 4.00.
The corresponding values for `CN(C)CCOc1c(O)cc(O)c2c(=O)cc(-c3ccccc3)oc12` are 4.40, 39.8 µM and under 4.00.
The like results for `COc1c(OCc2cnoc2C)cc(O)c2c(=O)cc(-c3ccccc3)oc12` were, in that order, 4.66, 21.9 µM and under 4.00.
Regarding `CCCCNCCCCOc1c(O)cc(O)c2c(=O)cc(-c3ccccc3)oc12`, in experiment [1], the pIC50 is 4.41 and the IC50 is 38.9 µM. Besides, the pIC50 in experiment [3] was 4.21.
As for `COc1c(OCCCCN2CCOCC2)cc(O)c2c(=O)cc(-c3ccccc3)oc12`, the pIC50 was 5.48 in experiment [1], 5.28 in experiment [3] and 5.82 in experiment [2]. Besides, in experiment [1], the IC50 was 3.31 µM.
The like results for `COc1c(OCCCCN2CCCC2)cc(O)c2c(=O)cc(-c3ccccc3)oc12` were, in that order, 5.44, 5.20, 5.82 and 3.63 µM.
As for `COc1c(O)cc(O)c2c(=O)cc(-c3ccc(C)cc3)oc12`, in experiment [1], the negative logarithm of the IC50 (pIC50) is 4.60 and the IC50 is 25.1 µM.
The corresponding values for `COc1c(O)cc(O)c2c(=O)cc(-c3cccc(F)c3)oc12` are 4.23 and 58.9 µM.
As for `CC(C)NCCOc1c(O)cc(O)c2c(=O)cc(-c3ccccc3)oc12`, in experiment [1], the negative-log IC50 (pIC50) was 4.85 and the IC50 was 14.1 µM. Also, the negative logarithm of the IC50 (pIC50) in experiment [3] is under 4.00.
Regarding `CN1CCN(CCOc2c(O)cc(O)c3c(=O)cc(-c4ccccc4)oc23)CC1`, the negative logarithm of the IC50 (pIC50) in experiment [1] was 4.25; in experiment [2], under 4.00. Also, in experiment [1], the IC50 is 56.2 µM.
Regarding `COc1ccc(-c2cc(=O)c3c(O)cc(O)c(OC)c3o2)cc1` [GALANGUSTIN], in experiment [1], the negative logarithm of the IC50 (pIC50) is 4.37 and the IC50 is 42.7 µM.
The like results for `COc1c(O)cc(O)c2c(=O)cc(-c3ccc(Br)cc3)oc12` were, in that order, 4.42 and 38 µM.
The corresponding values for `COc1c(O)cc(O)c2c(=O)cc(-c3ccc(Cl)cc3)oc12` are 4.47 and 33.9 µM.
Regarding `COc1c(OCCCCN2CCN(C)CC2)cc(O)c2c(=O)cc(-c3ccccc3)oc12`, the values for the pIC50 in experiment [1], in experiment [3] and in experiment [2] were 5.95, 5.28 and 5.82, respectively. Also, in experiment [1], the IC50 is 1.12 µM.
With `O=c1[nH]cc(F)c(=O)[nH]1` [FLUOROURACIL], the pIC50 in experiment [1] was 4.76; in experiment [3], 5.00; in experiment [2], 4.79.
For `COc1c(OCCCCN(CCO)CCO)cc(O)c2c(=O)cc(-c3ccccc3)oc12`, the values for the negative-log IC50 (pIC50) in experiment [1], in experiment [3] and in experiment [2] were 5.58, 5.23 and 5.90, respectively. For the same compound, the IC50 in experiment [1] was 2.63 µM.
`CCN(CC)CCCCOc1cc(O)c2c(=O)cc(-c3ccccc3)oc2c1OC`: the pIC50 in experiment [1] is 5.76; in experiment [3], 5.21; in experiment [2], 6.00. Moreover, the IC50 in experiment [1] was 1.74 µM.
Take `CCCNCCCCOc1c(O)cc(O)c2c(=O)cc(-c3ccccc3)oc12`: in experiment [1], the negative logarithm of the IC50 (pIC50) was 5.00 and the IC50 was 10 µM. Further, in experiment [3], the pIC50 is 4.29.
For `CCN(CC)CCCOc1cc(O)c2c(=O)cc(-c3ccccc3)oc2c1OC`, the results for the negative-log IC50 (pIC50) in experiment [1], in experiment [3] and in experiment [2] were 5.48, 4.88 and 5.74, respectively. For the same compound, in experiment [1], the IC50 was 3.31 µM.

The term pIC50 denotes −log10 of the IC50, conventionally taken in molar units.
